# From patent US20240025875A1, “A COMPOUND AS A THYROID HORMONE BETA RECEPTOR AGONIST AND USE THEREOF” (SUNSHINE LAKE PHARMA CO., LTD., priority 2020, published 2024)
# Tests used:
# TRβ = molecular target: T1, TRβ (Homo sapiens, UniProt P10828); experiment: LanthaScreen TR-FRET Thyroid Receptor beta Coactivator Assay (in vitro binding activity); conditions: TR beta-LBD
# T1 construct: 5 μL of 4×TR beta/alfa-LBD; purchased Invitrogen PV4686
# T1 sequence (P10828 217-461 limits assumed): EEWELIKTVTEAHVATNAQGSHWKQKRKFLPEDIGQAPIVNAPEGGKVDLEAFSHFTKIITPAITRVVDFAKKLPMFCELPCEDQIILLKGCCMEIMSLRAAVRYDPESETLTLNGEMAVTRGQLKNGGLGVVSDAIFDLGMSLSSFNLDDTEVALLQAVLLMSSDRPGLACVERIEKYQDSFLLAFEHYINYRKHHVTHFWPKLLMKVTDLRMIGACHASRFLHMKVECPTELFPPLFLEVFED
# Method: (§1) 2. Detection of the Binding Activity of the Compound of the Present Invention to TRα or TRβ In Vitro
# (§2) Test Materials • LanthaScreen TR-FRET Thyroid Receptor beta Coactivator Assay kit was purchased from Invitrogen, Cat. No. PV4686; • LanthaScreen TR-FRET Thyroid Receptor alfa Coactivator Assay kit was purchased from Invitrogen, Cat. No. PV4687.
# (§3) The method was experimented with LanthaScreen TR-FRET Thyroid Receptor beta/alfa Coactivator Assay kit. The test compound was dissolved in DMSO and diluted 3 times to a total of 10 concentrations, and then diluted with TR-FRET Coregulator Buffer C in the kit to form a solution containing 2% DMSO, 10 μL of the solution containing 2% DMSO was taken into a 384-well plate, then 5 μL of 4×TR beta/alfa-LBD, 5 μL of a mixture containing 0.4 μM fluorescein-SRC2-2 and 8 nM Tb anti-GST antibody were added into each well, mixed thoroughly, and incubated at room temperature for 1 h in the dark. After 1 h, BMG LABTECH's PHERAstar FSX microplate reader was used to read the fluorescence value (RFU) at […]. The TR-FRET ratio was calculated by dividing the emission signal at 520 nm by the emission signal at 495 nm. Graph Pad Prism 5 software was used to draw the curve and calculate the EC50 value. The in vitro binding activity test results of some of the compounds of the examples of the present invention are shown in Table 1 below.
# [1] = Pharmacokinetic determination in SD rats (i.v. and i.g.); assay type: in vivo; conditions: for AUC(0-inf) / AUC(0-t) / Cmax / clearance / half-life / Vd: male, Sprague-Dawley (SD), rat, plasma; for Vd: read-out: VSS
# Description: Test purposes: The following method was used to determine the pharmacokinetics of the compound of the present invention.
# Test Materials: • Experimental reagents and test samples used: Propranolol (internal standard), methanol, ammonium acetate, K2EDTA (potassium ethylenediaminetetraacetic acid), formic acid, acetonitrile MTBE (methyl tert-butyl ether). KolliphorHS15 (macrogol 12 hydroxystearate), DMSO (dimethyl sulfoxide) are commercially available • SD rats: male, 180-220 g, 7-8 weeks old, purchased from Human Slack Experimental Animal Co., Ltd.
# Each test sample prepared was completely dissolved in a mixture of 5% DMSO+5% KolliphorHS 15+90% Saline according solubility property thereof.
# Samples were processed by liquid-liquid extraction, chromatographically separated, quantitatively analyzed by multiple reaction ion monitoring (MRM) on a triple quadrupole tandem mass spectrometer, and the concentration of the results was calculated by instrument quantitative software.
# 30 μL of plasma sample was precisely pipetted, added with 250 μL of internal standard, and vortexed to mix thoroughly. Plasma samples was extracted once with 1 mL of MTBE, centrifuged at 13,000 rpm for 2 min at 4° C. 800 μL of the supernatant was sucked out, evaporated to dryness in a 96-well nitrogen blower, and the residue was reconstituted with 150 μL of methanol/water (v/v=50/50), vortexed to mix, and injected with an injection volume of 8 μL.
# LC/MS/MS method was used to determine the content of the test compound in rat plasma after administration of different compounds.
# Pharmacokinetic parameters were calculated using a noncompartmental method by WinNonLin 6.1 software.
# TRα = molecular target: T2, TRα (Homo sapiens, UniProt P10827); experiment: LanthaScreen TR-FRET Thyroid Receptor alfa Coactivator Assay (in vitro binding activity); conditions: TR alfa-LBD
# T2 construct: 5 μL of 4×TR beta/alfa-LBD; purchased Invitrogen PV4687
# T2 sequence (P10827 163-410 isoform P10827-2 limits assumed, other chains not shown): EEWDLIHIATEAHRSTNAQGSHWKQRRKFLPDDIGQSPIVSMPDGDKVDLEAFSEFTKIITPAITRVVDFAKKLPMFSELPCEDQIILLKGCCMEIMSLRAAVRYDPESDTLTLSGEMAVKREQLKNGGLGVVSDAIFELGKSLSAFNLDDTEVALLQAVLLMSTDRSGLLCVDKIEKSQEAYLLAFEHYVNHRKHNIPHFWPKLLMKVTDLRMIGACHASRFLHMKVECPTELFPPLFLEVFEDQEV
# Method: as §1, §2, §3
SMILES,EC50 (TRβ),"F ([1]; ig, 5 mg/kg)","AUC(0-inf) ([1]; iv, 1 mg/kg)","AUC(0-t) ([1]; iv, 1 mg/kg)","Cmax ([1]; iv, 1 mg/kg)","clearance ([1]; iv, 1 mg/kg)","half-life ([1]; iv, 1 mg/kg)","Vd ([1]; iv, 1 mg/kg)","AUC(0-inf) ([1]; po, ig, 5 mg/kg)","AUC(0-t) ([1]; po, ig, 5 mg/kg)","Cmax ([1]; po, ig, 5 mg/kg)","half-life ([1]; po, ig, 5 mg/kg)",EC50 (TRα)
"O=C1c2ccc(Oc3c(Cl)cc(-n4ncc(=O)[nH]c4=O)cc3Cl)cc2CCN1Cc1ccc(F)cc1 [Example 20, 2-(3,5-dichloro-4-((2-(4-fluorobenzyl)-1-oxo-1,2,3,4-tetrahydroisoquinolin-6-yl)oxy)phenyl)-1,2,4-triazine-3,5(2H,4H)-dione]",0.012 µM,115.1%,16400 ng·h/mL,16300 ng·h/mL,3990 ng/mL,1.01 mL/min/kg,3.16 h,0.251 L/kg,94400 ng·h/mL,93700 ng·h/mL,10400 ng/mL,3.57 h,> 100 µM
"Cc1ccc(CN2CCc3cc(Oc4c(Cl)cc(-n5ncc(=O)[nH]c5=O)cc4Cl)ccc3C2=O)cc1 [Example 21, 2-(3,5-dichloro-4-((2-(4-methylbenzyl)-1-oxo-1,2,3,4-tetrahydroisoquinolin-6-yl)oxy)phenyl)-1,2,4-triazine-3,5(2H,4H)-dione]",0.019 µM,81.9%,1020 ng·h/mL,1020 ng·h/mL,2760 ng/mL,16.3 mL/min/kg,1.02 h,0.308 L/kg,4180 ng·h/mL,4160 ng·h/mL,4730 ng/mL,1.44 h,> 100 µM
"O=C1c2ccc(Oc3c(Cl)cc(-n4ncc(=O)[nH]c4=O)cc3Cl)cc2CCN1Cc1ccncc1 [Example 24, 2-(3,5-dichloro-4-((1-oxo-2-(pyridin-4-ylmethyl)-1,2,3,4-tetrahydroisoquinolin-6-yl)oxy)phenyl)-1,2,4-triazine-3,5(2H,4H)-dione]",0.075 µM,117.7%,3790 ng·h/mL,3720 ng·h/mL,4020 ng/mL,4.39 mL/min/kg,1.16 h,0.337 L/kg,223000 ng·h/mL,21900 ng·h/mL,7790 ng/mL,2.65 h,> 100 µM
O=C1c2ccc(Oc3c(Cl)cc(-n4ncc(=O)[nH]c4=O)cc3Cl)cc2CCN1c1ccc(F)cc1 [Example 28],0.017 µM,97.6%,9640 ng·h/mL,8730 ng·h/mL,8400 ng/mL,1.73 mL/min/kg,2.91 h,0.246 L/kg,47000 ng·h/mL,47000 ng·h/mL,15500 ng/mL,2.29 h,> 100 µM
"O=C1c2ccc(Oc3c(Cl)cc(-n4ncc(=O)[nH]c4=O)cc3Cl)cc2CCN1Cc1ccc(C(F)(F)F)cc1 [Example 29, 2-(3,5-dichloro-4-((1-oxo-2-(4-(trifluoromethyl)benzyl)-1,2,3,4-tetrahydroisoquinolin-6-yl)oxy)phenyl)-1,2,4-triazine-3,5(2H,4H)-dione]",0.091 µM,66.2%,56000 ng·h/mL,48700 ng·h/mL,4270 ng/mL,0.297 mL/min/kg,8.47 h,0.194 L/kg,236000 ng·h/mL,159000 ng·h/mL,10300 ng/mL,14.1 h,> 100 µM
"O=C1c2ccc(Oc3c(Cl)cc(-n4ncc(=O)[nH]c4=O)cc3Cl)cc2CCN1Cc1cccc(C(F)(F)F)c1 [Example 34, 2-(3,5-dichloro-4-((2-(3-(trifluoromethyl)benzyl)-1-oxo-1,2,3,4-tetrahydroisoquinolin-6-yl)oxy)phenyl)-1,2,4-triazine-3,5(2H,4H)-dione]",0.021 µM,111%,22400 ng·h/mL,18800 ng·h/mL,3020 ng/mL,0.744 mL/min/kg,9.87 h,0.531 L/kg,124000 ng·h/mL,110000 ng·h/mL,8460 ng/mL,7.67 h,> 100 µM
"O=C1c2ccc(Oc3c(Cl)cc(-n4ncc(=O)[nH]c4=O)cc3Cl)cc2CCN1Cc1ccc(Cl)cc1 [Example 37, 2-(3,5-dichloro-4-((2-(4-chlorobenzyl)-1-oxo-1,2,3,4-tetrahydroisoquinolin-6-yl)oxy)phenyl)-1,2,4-triazine-3,5(2H,4H)-dione]",0.043 µM,116.3%,21100 ng·h/mL,20900 ng·h/mL,4200 ng/mL,0.789 mL/min/kg,3.61 h,0.212 L/kg,122000 ng·h/mL,121000 ng·h/mL,12300 ng/mL,3.5 h,> 100 µM
"O=C1c2ccc(Oc3c(Cl)cc(-n4ncc(=O)[nH]c4=O)cc3Cl)cc2CCN1c1cccc(F)c1 [Example 42, 2-(3,5-dichloro-4-((2-(3-fluorophenyl)-1-oxo-1,2,3,4-tetrahydroisoquinolin-6-yl)oxy)phenyl)-1,2,4-triazine-3,5(2H,4H)-dione]",0.016 µM,134.8%,1960 ng·h/mL,1860 ng·h/mL,4340 ng/mL,8.49 mL/min/kg,2.97 h,0.658 L/kg,13200 ng·h/mL,12700 ng·h/mL,7700 ng/mL,2.53 h,> 100 µM
"N#Cc1nn(-c2cc(Cl)c(Oc3ccc4c(c3)CCN(c3cccnc3)C4=O)c(Cl)c2)c(=O)[nH]c1=O [Example 49f, 2-(3,5-dichloro-4-((1-oxo-2-(pyridin-3-yl)-1,2,3,4-tetrahydroisoquinolin-6-yl)oxy)phenyl)-3,5-dioxo-2,3,4,5-tetrahydro-1,2,4-triazine-6-carbonitrile]",0.769 µM,–,–,–,–,–,–,–,–,–,–,–,> 100 µM
"O=C1c2ccc(Oc3c(Cl)cc(-n4ncc(=O)[nH]c4=O)cc3Cl)cc2CCN1c1ncccn1 [Example 50, 2-(3,5-dichloro-4-((1-oxo-2-(pyrimidin-2-yl)-1,2,3,4-tetrahydroisoquinolin-6-yl)oxy)phenyl)-1,2,4-triazine-3,5(2H,4H)-dione]",0.12 µM,–,–,–,–,–,–,–,–,–,–,–,0.274 µM
"N#Cc1nn(-c2cc(Cl)c(Oc3ccc4c(c3)CCN(c3ncccn3)C4=O)c(Cl)c2)c(=O)[nH]c1=O [Example 50f, 2-(3,5-dichloro-4-((1-oxo-2-(pyrimidin-2-yl)-1,2,3,4-tetrahydroisoquinolin-6-yl)oxy)phenyl)-3,5-dioxo-2,3,4,5-tetrahydro-1,2,4-triazine-6-carbonitrile]",0.213 µM,–,–,–,–,–,–,–,–,–,–,–,2.62 µM
"N#Cc1nn(-c2cc(Cl)c(Oc3ccc4c(c3)CCN(C=O)C4=O)c(Cl)c2)c(=O)[nH]c1=O [Example 51, 2-(3,5-dichloro-4-((2-formyl-1-oxo-1,2,3,4-tetrahydroisoquinolin-6-yl)oxy)phenyl)-3,5-dioxo-2,3,4,5-tetrahydro-1,2,4-triazine-6-carbonitrile]",0.904 µM,–,–,–,–,–,–,–,–,–,–,–,> 100 µM
"O=C1c2ccc(Oc3c(Cl)cc(-n4ncc(=O)[nH]c4=O)cc3Cl)cc2CCN1c1nccs1 [Example 52, 2-(3,5-dichloro-4-((1-oxo-2-(thiazol-2-yl)-1,2,3,4-tetrahydroisoquinolin-6-yl)oxy)phenyl)-1,2,4-triazine-3,5(2H,4H)-dione]",0.016 µM,–,–,–,–,–,–,–,–,–,–,–,0.23 µM
